Data from patent publication US12083097B2, “Dual TNFR1 antagonists and TNER2 agonists for use in renal diseases” (SERODUS AS, priority 2020, dated 2024).
Entries after “also recorded” stand apart in the source; their conditions may differ.

Experiments:
[1] = tested on: patients with diabetic nephropathy; experiment: Clinical Phase 2a study, ACR in patients with diabetic nephropathy; format: in vivo, human; details: for Average baseline ACR / Average ACR (4 weeks): doses 0.3 and 0.625 mg/kg daily pooled
Procedure: A clinical Phase 2a study with compound 1 was conducted in patients with diabetic nephropathy. The patients were divided into two different subgroups having either macroalbuminuria (ACR>300 mg/g) or microalbuminuria (ACR 30-300 mg/g), and each subgroup were treated with 0.3 mg of compound 1/kg daily or 0.625 mg of compound 1/kg daily for 4 weeks.

[2] = tested on: sTNFR2; experiment: Urine sTNFR2-to-creatinine in Px-UNx diabetic nephropathy rat model (ELISA); format: in vivo; details: for urine concentration of sTNFR2 corrected for urine creatinine: Group 3, Px-UNx rats, 1 mg/kg
Procedure: (§1) In the examples below, the sTNFR1 and sTNFR2 were measured using the commercial ELISA kits mouse/rat TNFRI/TNFRII Quantikine ELISA kits from R&D Systems according to the manufacturers protocol. However, for the purpose of measuring the sTNFR1 and sTNFR2 in humans for determining the relevant population groups according the present invention, the method described in Krolewski A. S. Diabetes Care 2015; 38:954-962 and Krolewski A. S. et al. Kidney Int. 2017 June; 91(6): 1300-1311 should be used.
(§2) The pancreatectomy and uninephrectomy (see below) were conducted during a single surgical procedure (Secher T et al. Diabetes 2018 July; 67(Supplement 1)). Animals were operated in a randomized fashion during several consecutive surgical days. After an overnight full-fast with grids installed in the cages, the rats were pancreatectomized and uninephrectomized under isoflurane anesthesia. Pre-operative analgesia, antibiotics and fluid replacement were administered. Rats were not offered any food from one day before to one day after the surgery, From the second day after surgery they were fed ad libitum.
(§3) In short, the 90% pancreatectomy is performed by removing the complete portion of the tail, body and a part of the pancreatic head by gentle abrasion with dental applicator. The major blood vessels to the stomach, spleen and gut are left intact so no other organs are compromised.
(§4) Briefly, the right kidney is visited and the right ureter, kidney artery and kidney vein identified, and ligated with suture. Hereafter, the right kidney is removed.
(§5) The sham operation is conducted to mimic the Px-UNx surgical procedure as best as possible. In brief, anesthesia and analgesia as well as opening and closuring the abdominal cavity are conducted as described above. After the abdominal cavity is opened, the pancreas and right kidney will be exposed, but left untouched and intact.
Rats were placed individually in metabolic cages for 16 h from the afternoon to the next morning. […] Total urine volume was recorded, and urine stored at −80° C. […]
(§6) Urine samples were stored at −80° C. until analysis. sTNFR1 in rat urine was measured using commercial ELISA kits (R&D Systems mouse/rat TNFRI/TNFRII Quantikine ELISA kits) according to the manufacturer's instructions. Urine creatinine was measured using the CREP2 kit (Roche Diagnostics, Germany) on the Cobas™ C-501 autoanalyzer as per the manufacturer's instructions. Urinary albumin was measured using the Bethyl Laboratories rat albumin ELISA as per the manufacturer's instructions. The urinary albumin-to-creatinine ratio (UACR) was calculated. […]
Likewise, the urine concentrations of sTNFR2 corrected for urine concentration of creatinine (pg/mg) were measured at baseline and after 4 and 7 weeks in group 3.

[3] = tested on: sTNFR1; experiment: Urine sTNFR1-to-creatinine in Px-UNx diabetic nephropathy rat model (ELISA); format: in vivo; details: for urine sTNFR1 corrected for creatinine, pooled data from Table 2: Treated Px-UNx rats (n = 33), doses 1, 3, 10 mg/kg pooled
Procedure: Three active doses of 1, 3 and 10 mg/kg of compound 1 were administered orally once daily to 90% pancreatectomized and uninephrectomized rats over 49 days. A control group received placebo, and another control group underwent surgery to mimic the 90% pancreatectomy (Px) and uninephrectomy (UNx) without affecting the function of the kidney or the pancreas (Sham model). The Sham group also received placebo. The conclusion from the rat study was that compound 1 reduced the level of sTNFR1 in the urine over the full treatment period (see FIG. 2). […] The daily doses in the rat model may be converted into equivalent doses in humans (Guidance for Industry: Estimating the Maximum Safe Starting Dose in Initial Clinical Trials for Therapeutics in Adult Healthy Volunteers, 2005). Thus, the 1 mg/kg daily dose corresponds to a human daily dose of 0.16 mg/kg or 11.2 mg for a 70-kg patient. Likewise, a 3 mg/kg daily dose corresponds to a human daily dose of 0.48 mg/kg or 33.6 mg for a 70-kg patient. Finally, a 10 mg/kg daily dose corresponds to a human daily dose of 1.6 mg/kg or 112.7 mg for a 70-kg patient.
as §1, §2, §3, §4, §5
Rats were placed individually in metabolic cages for 16 h from the afternoon to the next morning. Randomized subsets of the study groups were placed in the cages over several days (as there were fewer cages than rats). Rats were supplied with chow and water ad libitum. Cage enrichment (igloo, plastic stick to sit on) was included if possible. Total urine volume was recorded, and urine stored at −80° C. Large amounts were aliquoted in several 0.5 ml Eppendorph tubes prior to freezing.
as §6, with “instructions.” for “instructions. The urinary albumin-to-creatinine ratio (UACR) was calculated.”

O=C(O)CC/C=C\C[C@@H]1CO[C@H](c2ccccc2Cl)O[C@@H]1c1ccccc1O [compound 1, (Z)-6-((2S,4S,5R)-2-(2-chlorophenyl)-4-(2-hydroxyphenyl)-1,3-dioxan-cis-5-yl) hex-4-enoic acid]
difference in ACR effect between the two doses ([1]; 0.3 vs 0.625 mg/kg daily, each subgroup, 4 weeks): No statistic significant difference between the two doses | ACR reduction in macroalbuminuria versus microalbuminuria sub-group ([1]; 4 weeks, doses pooled): statistic significant higher reduction in ACR | Average baseline ACR ([1]; Macroalbuminuria (ACR>300 mg/g) patients, n = 11, baseline): 691 mg/g | ACR reduction (%) ([1]; Macroalbuminuria patients, n = 11, 4 weeks vs baseline, doses pooled): 26.2% | Average ACR (4 weeks) ([1]; Macroalbuminuria patients, n = 11, after 4 weeks): 510 mg/g | Average baseline ACR ([1]; Microalbuminuria (ACR 30-300 mg/g) patients, n = 38, baseline): 91.8 mg/g | ACR reduction (%) ([1]; Microalbuminuria patients, n = 38, 4 weeks vs baseline, doses pooled): 20.9% | Average ACR (4 weeks) ([1]; Microalbuminuria patients, n = 38, after 4 weeks): 72.6 mg/g | reduction in ACR from baseline ([1]; both subgroups (micro- and macroalbuminuria), 4 weeks): statistically significant reduction in ACR | urine concentration of sTNFR2 corrected for urine creatinine ([2]; 0 weeks (baseline)): 4561 pg/mg | urine concentration of sTNFR2 corrected for urine creatinine ([2]; 4 weeks): 3302 pg/mg | urine concentration of sTNFR2 corrected for urine creatinine ([2]; 7 weeks): 3264 pg/mg | change in urine TNFR2-to-creatinine from baseline versus placebo (FIG. 3) ([2]; Px-UNx rats, 3 mg/kg, p.o., 4 and 7 weeks): decreasing levels of TNFR2 but much less compared to the placebo control group | urine concentration of sTNFR1 corrected for urine creatinine ([3]; Group 3, Px-UNx rats, 1 mg/kg orally once daily, 0 weeks (baseline)): 243.38 pg/mg | urine concentration of sTNFR1 corrected for urine creatinine ([3]; Group 3, Px-UNx rats, 1 mg/kg orally once daily, 4 weeks): 373.28 pg/mg | urine concentration of sTNFR1 corrected for urine creatinine ([3]; Group 3, Px-UNx rats, 1 mg/kg orally once daily, 7 weeks): 345.46 pg/mg | urine concentration of sTNFR1 corrected for urine creatinine ([3]; Group 4, Px-UNx rats, 3 mg/kg orally once daily, 0 weeks (baseline)): 236.29 pg/mg | urine concentration of sTNFR1 corrected for urine creatinine ([3]; Group 4, Px-UNx rats, 3 mg/kg orally once daily, 4 weeks): 313.80 pg/mg | urine concentration of sTNFR1 corrected for urine creatinine ([3]; Group 4, Px-UNx rats, 3 mg/kg orally once daily, 7 weeks): 369.65 pg/mg | urine concentration of sTNFR1 corrected for urine creatinine ([3]; Group 5, Px-UNx rats, 10 mg/kg orally once daily, 0 weeks (baseline)): 220.27 pg/mg | urine concentration of sTNFR1 corrected for urine creatinine ([3]; Group 5, Px-UNx rats, 10 mg/kg orally once daily, 4 weeks): 348.50 pg/mg | urine concentration of sTNFR1 corrected for urine creatinine ([3]; Group 5, Px-UNx rats, 10 mg/kg orally once daily, 7 weeks): 375.03 pg/mg | corrected urine sTNFR1 level versus placebo group ([3]; Px-UNx rats, 1, 3, 10 mg/kg, 4 and 7 weeks, compared with Px-UNx placebo): capable of decreasing the level of sTNFR1; also recorded: consistently below the values for the placebo group | difference in sTNFR1 effect between dosage levels ([3]; Px-UNx rats, 1, 3 or 10 mg/kg): no statistically significant difference between dosage levels | change in urine sTNFR1 from baseline versus placebo (FIG. 2) ([3]; Px-UNx rats, pooled doses, 7-week period): significantly less than for the placebo control group | urine sTNFR1 corrected for creatinine, pooled data from Table 2 ([3]; 0 weeks (baseline)): 233.3 pg/mg | urine sTNFR1 corrected for creatinine, pooled data from Table 2 ([3]; 4 weeks): 345.2 pg/mg | urine sTNFR1 corrected for creatinine, pooled data from Table 2 ([3]; 7 weeks): 363.4 pg/mg
